This assay deals with 695427-040-R-J1-PDC complex spheroids, viability percent T/C. The assay can be described thus: Anticancer human tumor 695427-040-R-J1-PDC patient-derived colon adenocarcinoma cell line growth inhibition [GQUAD]. The conditions noted are these: for viability, T/C: stronger effect = lower value. The source says: DNA G-quadruplex Stabilizer Agents in Combinations in Complex Spheroids
A high-throughput screen of multi-cell type tumor spheroids was designed to identify active combinations of DNA G-quadruplex stabilizer agents and targeted small molecules. Complex spheroids include a stromal component modeled by human endothelial cells (HUVEC) and fibroblasts modeled by human mesenchymal stem cells (MSCs). The concentration ranges selected for each drug and investigational agent were based upon clinically achievable concentrations if the clinical Cmax of the agent was known.
Compounds. The drugs and investigational agents: pidnarulex (CX-5461; NSC782164), APTO-253 (NSC789042), BRACO-19 (NSC847499), peposertib (NSC802822), ceralasertib (NSC780249), elimusertib (NSC800525), camonsertib (NSC841442), AZD-1390 (NSC803789), olaparib (NSC753686), talazoparib (NSC767125), ART-558 (NSC835418), sotorasib (NSC818433), MRTX-1133 (NSC836407), SN-38 (NSC673596), topotecan (NSC609699), etoposide (NSC141540), doxorubicin (NSC123127), gemcitabine (NSC613327), 5-fluorouracil (NSC19893), paclitaxel (NSC125973), vemurafenib (NSC761431), panobinostat (NSC761190), R-306465 (JNJ-16241199; NSC773264), adavosertib (NSC754352), TP-3654 (NSC805149), carboplatin (NSC241240), KSQ-4279 (NSC840948), and staurosporine (NSC755774) were obtained from the National Cancer Institute (NCI) Developmental Therapeutics Program Chemical Repository (34). The FDA-approved anticancer drug set is available from the NCI Developmental Therapeutics Program. […] The stock solutions were prepared in dimethyl sulfoxide (DMSO, Sigma-Aldrich, St. Louis, MO, cat. D2650) at 800-fold the tested concentration and stored at -70 degrees C prior to their use. All drugs and investigational agents were tested over a range starting from a high concentration at or near the clinical Cmax and decreasing in half-log increments. If the clinical Cmax for an agent had not been determined, the highest concentration tested was 10 microM.
2.3 Cell Culture. All cells were maintained in an incubator at 37 degrees C and 5% CO2 with 95% humidity. The PDC lines were cultured according to standard operating procedures established by the NCI PDMR. All PDCs were thawed and cultured in Matrigel-coated flasks prepared with a working solution of 1X Ham's F-12 nutrient mix, without supplementation (Invitrogen, cat. 11765054), 100 U/mL penicillin-streptomycin (Invitrogen, cat. 15140122), and 2.5% Matrigel (Corning Inc., cat. 354248) for the first three passages. The 857933-349-R-J2-PDC line was cultured in 6C/Colon 1B media, which includes advanced DMEM/F-12 (Thermo Fisher Scientific, cat. 12634028), 10 mM HEPES (Thermo Fisher Scientific, cat. 15630080), 1X GlutaMAX supplement (Thermo Fisher Scientific, cat. 35050061), 0.1 mg/mL primocin (InvivoGen, cat. ant-pm-2), 10% defined fetal bovine serum, heat inactivated (HyClone Laboratories Inc., cat. SH30070.03HI), 50% L-WRN conditioned media (ATCC, cat. CRL-3276), 1.25 mM N-Acetyl-L-cysteine (Sigma-Aldrich, cat. A9165), 10 mM nicotinamide (Sigma-Aldrich, cat. N0636), 1X B-27 supplement (Thermo Fisher Scientific, cat. 17504044), 1X N-2 supplement (Thermo Fisher Scientific, cat. 17502048), 10 microM Y-27632 dihydrochloride (Tocris Bioscience, cat. 1254), and 50 ng/mL human EGF recombinant protein (Thermo Fisher Scientific, cat. PHG0311). The 485176-168-R4-J1-PDC line was cultured in Panc media, which includes all 6C/Colon 1B media components plus 100 ng/mL human FGF-10 (Thermo Fisher Scientific, cat. 100-26), 500 nM SB-431542 (Selleckchem, cat. S1067), and gastrin (Tocris, cat. 3006).
[…]

SMILES strings stand for the structures. “And” between values parts separate entries of the source, which are not always exact repeats. Identical values can stand only once.
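Note: spheroids exposed to compounds for seven days before readout.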

For the compound `Cc1[nH]c2ccccc2c1CCNCc1ccc(/C=C/C(=O)NO)cc1`, the viability, T/C runs as follows: (compound 0.000999 µM) 98.8% and 112% and 98%; (compound 0.00316 µM) 103% and 100% and 96.8%; (compound 0.00999 µM) 98.5% and 103% and 99.5%; (compound 0.0316 µM) 98.7% and 110% and 101%; (compound 0.0999 µM) 96.6% and 93.8% and 94.2%; (compound 0.316 µM) 89.6% and 68% and 71.7%. Also, the concentration for half-maximal inhibition (IC50) (curve of compound) was above 316 nM.

`O=c1[nH]cc(F)c(=O)[nH]1`: the viability, T/C (compound 0.0316 µM) is 95.9% and 105% and 110%; the viability, T/C (compound 0.1 µM) was 85.8% and 99.6% and 96.4%; the viability, T/C (compound 0.316 µM) is 86% and 106% and 100%; the viability, T/C (compound 1 µM) is 97.5% and 100% and 88.9%; the viability, T/C (compound 3.16 µM) is 80.1% and 63.3% and 102%; the viability, T/C (compound 10 µM) is 86.5% and 98.3% and 92%. Moreover, the IC50 (curve of compound) was above 10000 nM.

On to `COc1cccc2c1C(=O)c1c(O)c3c(c(O)c1C2=O)CC(O)(C(=O)CO)CC3OC1CC(N)C(O)C(C)O1` (stereo unspecified) + Cc1cnc(CNC(=O)c2c(=O)c3ccc(N4CCCN(C)CC4)nc3n3c2sc2ccccc23)cn1, for which the concentration for half-maximal inhibition (IC50) by setting is: (curve of first compound, second compound 0.0316 µM) 1510 nM; (curve of first compound, second compound 0.1 µM) 1990 nM; (curve of first compound, second compound 0.316 µM) 1920 nM; (curve of first compound, second compound 1 µM) 557 nM; (curve of first compound, second compound 3.16 µM) below 31.6 nM; (curve of first compound, second compound 10 µM) below 31.6 nM. The viability, T/C (second compound 0.0316 µM, first compound 0.0316 µM) was 96.5%; the viability, T/C (second compound 0.0316 µM, first compound 0.1 µM) is 68%; the viability, T/C (second compound 0.0316 µM, first compound 0.316 µM) was 70%; the viability, T/C (second compound 0.0316 µM, first compound 1 µM) is 56.8%; the viability, T/C (second compound 0.0316 µM, first compound 3.16 µM) is 38.7%; the viability, T/C (second compound 0.0316 µM, first compound 10 µM) was 40.4%. Moreover, the viability, T/C (second compound 0.1 µM, first compound 0.0316 µM) is 86.3%; the viability, T/C (second compound 0.1 µM, first compound 0.1 µM) is 70.6%; the viability, T/C (second compound 0.1 µM, first compound 0.316 µM) is 85.3%; the viability, T/C (second compound 0.1 µM, first compound 1 µM) is 62.3%; the viability, T/C (second compound 0.1 µM, first compound 3.16 µM) was 45%; the viability, T/C (second compound 0.1 µM, first compound 10 µM) was 38.4%. Besides, the viability, T/C runs as follows: (second compound 0.316 µM, first compound 0.0316 µM) 72.2%; (second compound 0.316 µM, first compound 0.1 µM) 69.8%; (second compound 0.316 µM, first compound 0.316 µM) 64.9%; (second compound 0.316 µM, first compound 1 µM) 60.4%; (second compound 0.316 µM, first compound 3.16 µM) 42.4%; (second compound 0.316 µM, first compound 10 µM) 34.4%. Besides, the viability, T/C runs as follows: (second compound 1 µM, first compound 0.0316 µM) 60.2%; (second compound 1 µM, first compound 0.1 µM) 56.8%; (second compound 1 µM, first compound 0.316 µM) 59.6%; (second compound 1 µM, first compound 1 µM) 41%; (second compound 1 µM, first compound 3.16 µM) 34.2%; (second compound 1 µM, first compound 10 µM) 24.2%. In addition, the viability, T/C (second compound 3.16 µM, first compound 0.0316 µM) was 43.8%; the viability, T/C (second compound 3.16 µM, first compound 0.1 µM) was 55.6%; the viability, T/C (second compound 3.16 µM, first compound 0.316 µM) was 48%; the viability, T/C (second compound 3.16 µM, first compound 1 µM) was 28.1%; the viability, T/C (second compound 3.16 µM, first compound 3.16 µM) was 28.9%; the viability, T/C (second compound 3.16 µM, first compound 10 µM) was 14.9%. The viability, T/C (second compound 10 µM, first compound 0.0316 µM) was 32.1%; the viability, T/C (second compound 10 µM, first compound 0.1 µM) was 45%; the viability, T/C (second compound 10 µM, first compound 0.316 µM) was 43.5%; the viability, T/C (second compound 10 µM, first compound 1 µM) was 26.4%; the viability, T/C (second compound 10 µM, first compound 3.16 µM) was 20.2%; the viability, T/C (second compound 10 µM, first compound 10 µM) was 3.89%.

What is called viability, T/C is the ratio of treated to control. What is called IC50 is the concentration at which inhibition is half-maximal.
